Experimental data: patent publication US12421254B2, “KRAS modulators and uses thereof” (Quanta Therapeutics, Inc., priority 2023, dated 2025)

How the values were obtained:
[1] = biological target: GST-tagged KRAS-G12D (2-169) (Homo sapiens, UniProt P01116, G12D); assay: Nucleotide exchange assay (NEA), SOS-mediated, HTRF, KRAS G12D; format: biochemical; details: Table 4; IC50 extracted at 30 min; 20 nM SOScat; read-out: NEA G12D IC50
Summary of the method: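 Compound preincubated 1 h at RT with 0.25 nM GST-KRAS-G12D (2-169) and anti-GST Tb donor, then 20 nM SOS1cat (564-1049) and 150 nM GTP-DY-647P1 added; pH 7.3 HEPES buffer with MgCl2 and DTT. HTRF monitored at RT; % inhibition versus DMSO and no-SOS blank, 4-parameter IC50 taken at 30 min.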

[2] = biological target: GST-tagged KRAS-G12V (2-169) (Homo sapiens, UniProt P01116, G12V); assay: Nucleotide exchange assay (NEA), SOS-mediated, HTRF, KRAS G12V; format: biochemical; details: Table 4; IC50 extracted at 90 min; 80 nM SOS
GST-tagged KRAS-G12V (2-169), sequence (P01116 2-169 isoform P01116-2 G12V): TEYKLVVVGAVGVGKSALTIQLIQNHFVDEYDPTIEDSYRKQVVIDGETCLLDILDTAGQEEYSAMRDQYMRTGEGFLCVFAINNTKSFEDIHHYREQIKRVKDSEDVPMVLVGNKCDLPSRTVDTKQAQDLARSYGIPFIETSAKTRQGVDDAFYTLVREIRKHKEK
Summary of the method: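 GST-KRAS-G12V (2-169), 0.25 nM, pre-incubated 1 h at RT with compound, then SOS1cat (564-1049) 80 nM and GTP-DY-647P1 150 nM added in HEPES pH 7.3 buffer with MgCl2 and DTT. HTRF via anti-GST Tb cryptate read over 90 min; IC50 from 4-parameter fit at 90 min, blanked to no-SOS reactions.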

GST-tagged KRAS-G12D (2-169), sequence (P01116 2-169 isoform P01116-2 G12D): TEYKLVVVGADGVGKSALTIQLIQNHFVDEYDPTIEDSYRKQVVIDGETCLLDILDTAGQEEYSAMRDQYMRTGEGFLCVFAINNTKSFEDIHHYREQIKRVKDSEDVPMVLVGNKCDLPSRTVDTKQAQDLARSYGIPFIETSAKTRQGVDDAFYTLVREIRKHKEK

SMILES | IC50 [1] | IC50 [2]
C[C@H](c1cccnc1N)N(CC(F)F)c1nc(OCC2(CN(C)C)CC2(F)F)nc(N2CC3(C2)SCc2sc(N)c(C#N)c23)n1 (stereo partly drawn) [Compound 220, 2-amino-1′-[4-[[(1R)-1-(2-amino-3-pyridyl)ethyl]-(2,2-difluoroethyl)amino]-6-[[1-[(dimethylamino)methyl]-2,2-difluoro-cyclopropyl]methoxy]-1,3,5-triazin-2-yl]spiro[6H-thieno[3,4-b]thiophene-4,3′-azetidine]-3-carbonitrile] | < 10 nM | < 10 nM
N#Cc1c(N)sc2c1C1(CC2)CN(c2nc(OC[C@@]34CCCN3C[C@H](F)C4)nc(N3CCSc4ncccc4C3)n2)C1 [Compound 99, 2-amino-1′-[4-(3,5-dihydro-2H-pyrido[3,2-f][1,4]thiazepin-4-yl)-6-[[(2R,8S)-2-fluoro-1,2,3,5,6,7-hexahydropyrrolizin-8-yl]methoxy]-1,3,5-triazin-2-yl]spiro[5,6-dihydrocyclopenta[b]thiophene-4,3′-azetidine]-3-carbonitrile] | 1000 to 20000 nM | 100 to 1000 nM
N#Cc1c(N)sc2c1C1(CN(c3nc(OC[C@@]45CCCN4C[C@H](F)C5)nc(N4CC5CC(=O)CC(C4)N5)n3)C1)SC2 [Compound 277, 2-amino-1′-[4-[[(2R,8S)-2-fluoro-1,2,3,5,6,7-hexahydropyrrolizin-8-yl]methoxy]-6-(7-oxo-3,9-diazabicyclo[3.3.1]nonan-3-yl)-1,3,5-triazin-2-yl]spiro[6H-thieno[3,4-b]thiophene-4,3′-azetidine]-3-carbonitrile] | 10 to 100 nM | < 10 nM
N#Cc1c(N)sc2c1C1(CN(c3nc(OC[C@@]45CCCN4C[C@H](F)C5)nc(N4C5CCC4CC(=O)NC5)n3)C1)SC2 (stereo partly drawn) [Compound 271, 2-amino-1′-[4-[[(2R,8S)-2-fluoro-1,2,3,5,6,7-hexahydropyrrolizin-8-yl]methoxy]-6-(4-oxo-3,9-diazabicyclo[4.2.1]nonan-9-yl)-1,3,5-triazin-2-yl]spiro[6H-thieno[3,4-b]thiophene-4,3′-azetidine]-3-carbonitrile] | 1000 to 20000 nM | 100 to 1000 nM
N#Cc1c(N)sc2c1C1(CC2)CN(c2nc(OC[C@@]34CCCN3C[C@H](F)C4)nc(N3CCC[C@H](C#N)[C@@H]3CO)n2)C1 (racemic) [Compound 63, 2-amino-1′-[4-[rac-(2R,3S)-3-cyano-2-(hydroxymethyl)-1-piperidyl]-6-[[(2R,8S)-2-fluoro-1,2,3,5,6,7-hexahydropyrrolizin-8-yl]methoxy]-1,3,5-triazin-2-yl]spiro[3a,5-dihydrocyclopenta[b]thiophene-4,3′-azetidine]-3-carbonitrile] | 100 to 1000 nM | 100 to 1000 nM
C[C@H](c1cccnc1N)N(C)c1nc(OC[C@@]23CCCN2C[C@H](F)C3)nc(N2CCC3(CCCc4sc(N)c(C#N)c43)C2=O)n1 (single isomer, unassigned) [Compound 175A, (*)-2-amino-1′-(4-(((R)-1-(2-aminopyridin-3-yl)ethyl)(methyl)amino)-6-(((2R,7aS)-2-fluorotetrahydro-1H-pyrrolizin-7a(5H)-yl)methoxy)-1,3,5-triazin-2-yl)-2′-oxo-6,7-dihydro-5H-spiro[benzo[b]thiophene-4,3′-pyrrolidine]-3-carbonitrile] | 10 to 100 nM | < 10 nM
N#Cc1c(N)sc2c1C1(CN(c3nc(OCC4(CN5CCOCC5)CC4)nc(N4CCNC[C@H]4CO)n3)C1)SC2 [Compound 186, (S)-2′-amino-1-(4-(2-(hydroxymethyl)piperazin-1-yl)-6-((1-(morpholinomethyl)cyclopropyl)methoxy)-1,3,5-triazin-2-yl)-6′H-spiro[azetidine-3,4′-thieno[3,4-b]thiophene]-3′-carbonitrile] | < 10 nM | 10 to 100 nM
CN(C)CC1(COc2nc(N3CCOCC(C)(O)C3)nc(N3CC4(C3)SCc3sc(N)c(C#N)c34)n2)CC1(F)F (stereo not shown) [Compound 281, 2-amino-1′-[4-[[1-[(dimethylamino)methyl]-2,2-difluoro-cyclopropyl]methoxy]-6-(6-hydroxy-6-methyl-1,4-oxazepan-4-yl)-1,3,5-triazin-2-yl]spiro[6H-thieno[3,4-b]thiophene-4,3′-azetidine]-3-carbonitrile] | < 10 nM | < 10 nM
C[C@H](c1ccc(P(C)(C)=O)cc1)N(C)c1nc(OC[C@@]23CCCN2C[C@H](F)C3)nc(N2CC3(C2)SCc2sc(N)c(C#N)c23)n1 [Compound 229, 2′-amino-1-(4-(((R)-1-(4-(dimethylphosphoryl)phenyl)ethyl)(methyl)amino)-6-(((2R,7aS)-2-fluorotetrahydro-1H-pyrrolizin-7a(5H)-yl)methoxy)-1,3,5-triazin-2-yl)-6′H-spiro[azetidine-3,4′-thieno[3,4-b]thiophene]-3′-carbonitrile] | 1000 to 20000 nM | 1000 to 20000 nM
N#Cc1c(N)sc2c1C1(CC2)CN(c2nc(N[C@@H]3COC[C@@H]3O)nc(OC[C@@]34CCCN3C[C@H](F)C4)n2)C1 (racemic) [Compound 103, 2-amino-1′-[4-[[(2R,8S)-2-fluoro-1,2,3,5,6,7-hexahydropyrrolizin-8-yl]methoxy]-6-[[rac-(3R,4R)-4-hydroxytetrahydrofuran-3-yl]amino]-1,3,5-triazin-2-yl]spiro[5,6-dihydrocyclopenta[b]thiophene-4,3′-azetidine]-3-carbonitrile] | 1000 to 20000 nM | 100 to 1000 nM
C[C@@]1(O)CCCN(c2nc(OC[C@@]34CCCN3C[C@H](F)C4)nc(N3CC4(C3)c3c(sc(N)c3C#N)C[S+]4[O-])n2)C1 (stereo partly drawn) [Compound 126, 2-amino-5-oxo-1′-[4-[[(2R,8S)-2-fluoro-1,2,3,5,6,7-hexahydropyrrolizin-8-yl]methoxy]-6-[(3R)-3-hydroxy-3-methyl-1-piperidyl]-1,3,5-triazin-2-yl]spiro[6H-thieno[3,4-b]thiophene-4,3′-azetidine]-3-carbonitrile] | 10 to 100 nM | 1000 to 20000 nM
C[C@@]1(O)CCCN(c2nc(OC[C@@]34CCCN3C[C@H](F)C4)nc(N3CCC4(CCCc5sc(N)c(C#N)c54)C3)n2)C1 (stereo partly drawn) [Compound 60, 2-amino-1′-[4-[[(2R,8S)-2-fluoro-1,2,3,5,6,7-hexahydropyrrolizin-8-yl]methoxy]-6-[(3R)-3-hydroxy-3-methyl-1-piperidyl]-1,3,5-triazin-2-yl]spiro[6,7-dihydro-5H-benzothiophene-4,3′-pyrrolidine]-3-carbonitrile] | 1000 to 20000 nM | 1000 to 20000 nM
CCN(c1nc(OC[C@@]23CCCN2C[C@H](F)C3)nc(N2CC3(C2)c2c(sc(N)c2C#N)CN3CC#N)n1)[C@H](C)c1cccnc1N [Compound 228, 2-amino-1′-[4-[[(1R)-1-(2-amino-3-pyridyl)ethyl]-ethyl-amino]-6-[[(2R,8S)-2-fluoro-1,2,3,5,6,7-hexahydropyrrolizin-8-yl]methoxy]-1,3,5-triazin-2-yl]-5-(cyanomethyl)spiro[6H-thieno[2,3-c]pyrrole-4,3′-azetidine]-3-carbonitrile] | 1000 to 20000 nM | 100 to 1000 nM
CC1(O)COCCN(c2nc(OCC3(CN4CCOCC4)CC3)nc(N3CC4(C3)SCc3sc(N)c(C#N)c34)n2)C1 (stereo not shown) [Compound 270, 2-amino-1′-[4-(6-hydroxy-6-methyl-1,4-oxazepan-4-yl)-6-[[1-(morpholinomethyl)cyclopropyl]methoxy]-1,3,5-triazin-2-yl]spiro[6H-thieno[3,4-b]thiophene-4,3′-azetidine]-3-carbonitrile] | < 10 nM | < 10 nM
CN(c1nc(OC[C@@]23CCCN2C[C@H](F)C3)nc(N2CC3(CCc4sc(N)c(C#N)c43)C2)n1)[C@@H]1CCC[C@@H]1O (racemic) [Compound 92, 2-amino-1′-[4-[[(2R,8S)-2-fluoro-1,2,3,5,6,7-hexahydropyrrolizin-8-yl]methoxy]-6-[[rac-(1R,2S)-2-hydroxycyclopentyl]-methyl-amino]-1,3,5-triazin-2-yl]spiro[5,6-dihydrocyclopenta[b]thiophene-4,3′-azetidine]-3-carbonitrile] | 100 to 1000 nM | 100 to 1000 nM
CO/N=C(\C(C)=O)C(=O)N1[C@@H]2CC[C@H]1CN(c1nc(OC[C@@]34CCCN3C[C@H](F)C4)nc(N3CC4(C3)SCc3sc(N)c(C#N)c34)n1)C2 [Compound 161, 2-amino-1′-[4-[[(2R,8S)-2-fluoro-1,2,3,5,6,7-hexahydropyrrolizin-8-yl]methoxy]-6-[(1R,5S)-8-[(2Z)-2-methoxyimino-3-oxo-butanoyl]-3,8-diazabicyclo[3.2.1]octan-3-yl]-1,3,5-triazin-2-yl]spiro[6H-thieno[3,4-b]thiophene-4,3′-azetidine]-3-carbonitrile] | 1000 to 20000 nM | 100 to 1000 nM
CN(c1nc(OC[C@@]23CCCN2C[C@H](F)C3)nc(N2CC3(C2)SCc2sc(N)c(C#N)c23)n1)[C@H]1[C@H]2CN[C@@H]1C2 [Compound 257, 2-amino-1′-[4-[[(1R,4R,5S)-2-azabicyclo[2.1.1]hexan-5-yl]-methyl-amino]-6-[[(2R,8S)-2-fluoro-1,2,3,5,6,7-hexahydropyrrolizin-8-yl]methoxy]-1,3,5-triazin-2-yl]spiro[6H-thieno[3,4-b]thiophene-4,3′-azetidine]-3-carbonitrile] | < 10 nM | 10 to 100 nM
